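Where inhibition never reached the appropriate level, the endpoint shown equals the highest concentration tested. Otherwise, values were interpolated linearly from a five-concentration, 48-hour dose response in 96-well plates. At the GI50, growth is halved. TGI denotes the concentration required for complete inhibition of growth.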
Legend:
Experiment in all cases: growth of human tumour cells (NCI), 48 h
A498 renal = system: A498 renal
BT-549 breast = system: BT-549 breast
CAKI-1 renal = system: CAKI-1 renal
DU-145 prostate = system: DU-145 prostate
HCT-116 colon = system: HCT-116 colon
HOP-92 NSCLC = system: HOP-92 NSCLC
SK-MEL-28 melanoma = system: SK-MEL-28 melanoma
SW-620 colon = system: SW-620 colon
UO-31 renal = system: UO-31 renal
HCC-2998 colon = system: HCC-2998 colon

SMILES | TGI (A498 renal) | TGI (BT-549 breast) [µM] | TGI (CAKI-1 renal) | TGI (DU-145 prostate) [µM] | TGI (HCT-116 colon) | TGI (HOP-92 NSCLC) | TGI (SK-MEL-28 melanoma) | TGI (SW-620 colon) | TGI (UO-31 renal) | GI50 (A498 renal) | GI50 (BT-549 breast) [µM] | GI50 (CAKI-1 renal) | GI50 (DU-145 prostate) [µM] | GI50 (HCC-2998 colon) | TGI (HCC-2998 colon) | GI50 (HCT-116 colon) | GI50 (HOP-92 NSCLC) | GI50 (SK-MEL-28 melanoma) | GI50 (SW-620 colon) | GI50 (UO-31 renal)
Fc1cccc(Cl)c1/C=N\N=C1c2ccccc2-c2ccccc21 | > 100 µM | > 100 | > 100 µM | > 100 | > 100 µM | > 100 µM | > 100 µM | > 100 µM | > 100 µM | – | – | – | – | – | – | – | – | – | – | –
Nc1ccc(S(=O)(=O)NCc2nccs2)cc1 | 33.4 µM | 45.3 | 84.6 µM | 95.5 | 40.8 µM | 41.4 µM | 51.2 µM | > 100 µM | 55.1 µM | – | – | – | – | – | – | – | – | – | – | –
Oc1ccccc1-c1nc2c3ccccc3c3ccccc3c2[nH]1 | 24.6 µM | 21.7 | 9.44 µM | 26.5 | 22.3 µM | 6.48 µM | 27.4 µM | 22.4 µM | 14.6 µM | 12.2 µM | 9.06 | 1.67 µM | 13.6 | 4.13 µM | 12.1 µM | 10.5 µM | 1.55 µM | 14.4 µM | 10.6 µM | 2.28 µM
O=Cc1ccc(-c2cccs2)s1 | 5.21 µM | > 100 | 49.7 µM | > 100 | > 100 µM | > 68.1 µM | > 100 µM | > 100 µM | > 100 µM | – | – | – | – | – | > 100 µM | – | – | – | – | –
COC(=O)c1c(-c2ccccc2)sc(-c2cccc3ccccc23)c1C(=O)OC | > 100 µM | – | > 100 µM | – | > 100 µM | > 100 µM | > 100 µM | > 100 µM | > 100 µM | – | – | – | – | – | > 100 µM | – | – | – | – | –
C=C=C(C(=O)OC)S(=O)c1ccc([N+](=O)[O-])cc1[N+](=O)[O-] (stereo unspecified) | > 100 µM | – | 63.1 µM | – | 50.3 µM | 66.7 µM | > 70 µM | 36.3 µM | 98.2 µM | – | – | – | – | – | 31.2 µM | – | – | – | – | –
CCOC(=O)C(=O)Nc1c(C(C)C)cccc1C(C)C | > 100 µM | – | > 100 µM | – | > 100 µM | > 100 µM | > 100 µM | > 100 µM | > 100 µM | – | – | – | – | – | > 100 µM | – | – | – | – | –
C=C(C=O)CCCC(C)[C@@H]1CCC23CC12CCC1[C@@]2(C)CCC(OC(C)=O)C(C)(C)C2CC(OC2OC(COC(C)=O)C(O)C(O)C2O)[C@]13C (stereo partly specified) | 13.3 µM | – | 10.9 µM | – | 1.43 µM | 12.4 µM | 1.77 µM | 1.44 µM | 11 µM | – | – | – | – | – | 13.9 µM | – | – | – | – | –
COC(=O)c1nc(N)[nH]c(=O)c1CCCCCc1c(C(=O)OC)nc(N)[nH]c1=O | > 50 µM | – | > 50 µM | – | > 50 µM | > 50 µM | > 50 µM | > 50 µM | > 50 µM | – | – | – | – | – | > 50 µM | – | – | – | – | –
Nc1nc(CCC(=O)Nc2cccc(C(F)(F)F)c2)cc(-c2ccc3ccccc3c2)n1 | > 100 µM | – | > 100 µM | – | > 100 µM | > 100 µM | > 100 µM | > 100 µM | > 100 µM | – | – | – | – | – | > 100 µM | – | – | – | – | –
CCOC(=O)c1cc(/C=C/C(C)=C/C(=O)OC)n(C)c1C | > 100 µM | – | > 100 µM | – | – | > 100 µM | – | > 100 µM | > 100 µM | – | – | – | – | – | > 100 µM | – | – | – | – | –
Cc1c(Cl)cccc1NC(=O)CC1C(=O)Nc2ccccc2S1(=O)=O (stereo unspecified) | 28.9 µM | – | 38.8 µM | – | 30.3 µM | 31.7 µM | 38.6 µM | 43.7 µM | 32.1 µM | – | – | – | – | – | 33.4 µM | – | – | – | – | –
COC(=O)C1=C(CS(=O)c2ccccc2[N+](=O)[O-])ON(C)C1c1ccccc1 (stereo unspecified) | > 100 µM | – | > 100 µM | – | > 100 µM | – | – | 88.6 µM | > 100 µM | – | – | – | – | – | 82.9 µM | – | – | – | – | –
Cn1c(=O)c2c(ncn2CN2CCN(Cn3cnc4c3c(=O)n(C)c(=O)n4C)CC2)n(C)c1=O | > 100 µM | > 100 | > 100 µM | > 100 | 34.6 µM | > 100 µM | > 100 µM | > 100 µM | > 100 µM | – | – | – | – | – | – | – | – | – | – | –
O=[N+]([O-])c1ccc2c(c1)[O][Sn]([I])([I])[O]2 | > 100 µM | – | > 100 µM | – | > 100 µM | > 100 µM | > 100 µM | > 100 µM | > 100 µM | > 100 µM | – | > 100 µM | – | > 100 µM | > 100 µM | > 100 µM | > 100 µM | 69.6 µM | > 100 µM | > 100 µM
COC1CC(OC(=O)c2ccccc2)C(OC(=O)c2ccccc2)C(C)O1 (stereo unspecified) | > 100 µM | – | > 100 µM | > 100 | > 100 µM | > 100 µM | > 100 µM | > 100 µM | > 100 µM | – | – | – | – | – | > 100 µM | – | – | – | – | –
O=[N+]([O-])c1ccc2c(c1)[O][Sn][O]2 | > 150 µg/mL | – | > 150 µg/mL | – | > 150 µg/mL | 88.3 µg/mL | > 150 µg/mL | > 150 µg/mL | > 150 µg/mL | > 150 µg/mL | – | 104 µg/mL | – | > 150 µg/mL | > 150 µg/mL | 45.3 µg/mL | 45.3 µg/mL | 29.4 µg/mL | 114 µg/mL | 125 µg/mL
O=c1[nH]c(=O)n(C2OC3COC2C3O)cc1F (stereo unspecified) | – | – | > 100 µM | – | – | > 100 µM | > 100 µM | > 100 µM | > 100 µM | – | – | – | – | – | > 100 µM | – | – | – | – | –
CCOC(=O)COS(=O)(=O)C(F)(F)F | > 100 µM | – | > 100 µM | – | > 100 µM | > 100 µM | > 100 µM | – | > 100 µM | – | – | – | – | – | > 100 µM | – | – | – | – | –
C1=CC=C2NCCOCCNC3=CC=CC=CC3=NCCOCCN=C2C=C1 | > 100 µM | – | > 100 µM | – | > 100 µM | – | > 100 µM | > 100 µM | > 100 µM | – | – | – | – | – | > 100 µM | – | – | – | – | –
Cc1nn(-c2ccccc2)c(-c2ccccc2[N+](=O)[O-])c1CC#N | – | – | > 100 µM | – | – | > 100 µM | > 100 µM | – | > 100 µM | – | – | – | – | – | > 100 µM | – | – | – | – | –
C[N+]1(C)C/C(=C\c2ccncc2)C(=O)/C(=C/c2ccncc2)C1 | > 100 µM | – | > 100 µM | – | > 100 µM | > 100 µM | > 100 µM | > 100 µM | > 100 µM | – | – | – | – | – | > 100 µM | – | – | – | – | –
Cc1ccc2c(c1)C(c1cccc3ccccc13)OC2=O (stereo unspecified) | 83.9 µM | – | > 100 µM | – | > 100 µM | – | > 100 µM | > 100 µM | > 100 µM | – | – | – | – | – | > 100 µM | – | – | – | – | –
